Data: US20160256535A1, “HEXAPEPTIDE AND USES THEREOF” (priority 2013, published 2016)
Residues, ends and D or L forms follow the SMILES beside them.

B1: rMnSOd: recombinant form of LSA-type-MnSOD bearing the 24 amino acid leader peptide at the N-terminus (protein, UniProt P04179 1-222, looked up)
chain: MLSRAVCGTSRQLAPVLGYLGSRQKHSLPDLPYDYGALEPHINAQIMQLHHSKHHAAYVNNLNVTEEKYQEALAKGDVTAQIALQPALKFNGGGHINHSIFWTNLSPNGGGEPKGELLEAIKRDFGSFDKFKEKLTAASVGVQGSGWGWLGFNKERGHLQIAACPNQDPLQGTTGLIPLLGIDVWEHAYYLQYKNVRPDYLKAIWNVINWENVTERYMACKK
modifications: full-length

What was measured:
PaTu Ca pancreatic = assay: Cytotoxicity by LDH release (Cytotox 96); type: cell-based, human; set-up: LDH μelease: dose or concentration left out as unconfirmed; settings: % of total LDH; for LDH release: 1.5 μM, 24 hr or 48 hr
Experimental: (§1) The leader peptide of 24 aa. […] The release of lactate dehydrogenase (LDH) was then measured quantitatively in the supernatant of the culture medium of the cells after 24 hr of incubation, using the Cytotox 96 non riadioactive cytotoxic assay kit in compliance with the technical indications provided by Promega. The experiments were performed in triplicate in an independent manner, using different preparations. (Table III)
(§2) After the incubation the amount of lactate dehydrogenase (LDH) released from cells into the supernatant was measured. This quantity was expressed as a percentage of the total LDH (released by cells in which cell lysis had been induced using a detergent). Approximately 3% of LDH was found in the culture medium of not treated cells.

HUT-7 Hepatocarcinoma = assay: Cytotoxicity by LDH release (Cytotox 96); type: cell-based, human; set-up: LDH μelease: dose or concentration left out as unconfirmed; settings: % of total LDH; for LDH release: 1.5 μM, 24 hr or 48 hr
Experimental: as §1, §2

MRC-5 = assay: Cytotoxicity by LDH release (Cytotox 96); type: cell-based, human; set-up: LDH μelease: dose or concentration left out as unconfirmed; settings: % of total LDH; for LDH release: 1.5 μM, 24 hr or 48 hr
Experimental: as §1, §2

A-2780 = assay: Cytotoxicity by LDH release (Cytotox 96); type: cell-based, human; settings: % of total LDH; for LDH release: 1.5 μM, 24 hr or 48 hr
Experimental: as §1, §2

A375 = assay: Determination of platinum in culture medium and cell pellet by atomic absorption spectrophotometry; type: cell-based, human; settings: 92 μM, 3 hours
Experimental: (§3) The cells to be examined, after the incubation period, were harvested, washed twice in buffered solution (PBS) and treated with 50 μl of 35% HNO3 for 16 hours. The platinum (Pt) contained in the culture medium or in the cell pellet was determined by spectrophotometer at atomic absorption (Analyst 800, Perkin-Elmer, Norwalk, Conn.) using the following criteria: temperature of pretreatment, 1300° C., temperature of atomizing 2200° C. 0.015 μg of palladium were used (palladium has been used for the modification of the matrix) and 0.01 μg of Mg (NO3)2 as a modifier of the matrix. The determinations were performed using a graphite furnace equipped with the correction system of the Zeeman effect. For the determination of the metal, tubes of pyrolytic graphite coated with THGA were used (Perkin-Elmer) with an integrated “vov-type platform” system. A standard solution of platinum in 2.5% HNO3 (Spectrascan) was used as a mother solution for the construction of a calibration curve with three points of reference. Each determination was performed independently, in triplicate (11).

MCF-7 = assay: as above; type: cell-based, human; settings: 92 μM, 3 hours
Experimental: as §3

A2780 = assay: as above; type: cell-based, human; settings: 92 μM, 3 hours
Experimental: as §3

HUH-7 = assay: as above; type: cell-based, human; settings: 92 μM, 3 hours
Experimental: as §3

DU145 = assay: as above; type: cell-based, human; settings: 92 μM, 3 hours
Experimental: as §3

[1] = test system: Human breast carcinoma MCF-7; assay: Cytotoxicity by LDH release (Cytotox 96); type: cell-based; settings: % of total LDH; for LDH release: 1.5 μM, 24 hr or 48 hr
Experimental: as §1, §2

[2] = Cytotoxicity by LDH release, summary over the cell lines; type: cell-based; settings: human
white blood cells = assay: White blood cell penetration, immunocytochemistry at light microscopy; type: cell-based, human; settings: healthy subject
Experimental: (§4) Lymphocytes were incubated for five hours in the presence of fluorescinated Hexapeptide 92 μM. A cytospin was used to smear cells onto slides. The smears were fixed in Zamboni solution (4% paraformaldehyde, 15% picric acid) for 60 minutes and then washed with 1×PBS and incubated for five minutes with 3% hydrogen peroxide to quench endogenous peroxidase activity. Immunostaining was performed using the DAKO LSA+System HRP kit. Rabbit anti-rMnSOD-Lp (1:200), was incubated on slides for 30 minutes, followed by incubation with the biotinylated secondary antibody for 30 minutes and peroxidase-labeled streptavidin for 30 minutes. To complete the reaction, a substrate-chromogen solution was used. The smears were counterstained with hematoxylin.

Human Normal Lymphocytes = assay: Lymphocyte penetration, immunocytochemistry / immunofluorescence; type: cell-based; settings: 3 hour incubation
Experimental: Human Normal Lymphocytes cells were collected from healthy donors and purified using Ficoll Hystopaque density gradient centrifugation. The cells were cultured at a density of 1×10^6 cells/mL in RPMI media supplemented with 1% Penstrep and 10% FBS in a humidified atmosphere containing 5% CO2 at 37° C.
as §4, with “A” for “Lymphocytes were incubated for five hours in the presence of fluorescinated Hexapeptide 92 μM. A”

[3] = test system: tumor cells of human origin; assay: Immuno-histochemical assessment of internalization; type: cell-based; settings: text summary of Table II
Experimental: (§5) Subsequently, a cytospin was used to obtain a smear of cells on slides. The cells were then placed in Zamboni solution (4% paraformaldehyde, 15% picric acid) for 60 min and then washed with a solution of 1×PBS and incubated for 5 min with 3% hydrogen peroxide to suppress the action of endogenous peroxidase. The immuno-coloring was performed using the Dako LSA+System HRP kit (DAKO, CA, USA). The incubation lasted 30 minutes with primary antibody anti-peptide leader of 24 aa (1:200), produced in rabbits. This phase was followed by sequential method that requires a 30-min incubation with biotinylated antibody and peroxidase-labeled streptavidin. To complete the reaction of differentiation, a substrate-chromogen solution was engaged. Cell smears were colored with hematoxylin.
(§6) A positive reaction is represented by a brownish coloration. A blue coloration indicates negativity.
The immunocytochemical analysis was performed using a polyclonal antibody able to recognize the amino acid sequence of the peptide leader of rMnSOD (7), ie of 24 aa. among which there are also those that form the hexapeptide.
After incubation with these molecules, the cells were washed and treated with the polyclonal antibody for three hours at rt, and then the cells were washed with a solution of PBS [17, 18]. In control cells (not treated and those treated with the antibody alone), the reaction is negative. […]

Jurkat cells = assay: Jurkat cell penetration, immunofluorescence; type: cell-based, human; settings: 92 μM, 3 h
Experimental: Jurkat cells (ATTC, UK) were seeded at density of 150000 cells/well in RPMI media supplemented with 1% Penstrep and 10% FBS in a humidified atmosphere containing 5% CO2 at 37°. The next day, the cells were incubated with 92 μM AVCGTG (SEQ ID NO. 1)-FITC for 3 h in multiwell 24. Subsequently, a cytospin was used to smear cells onto slides. The smears were fixed with 4% paraformaldehyde/PBS for 10 min and rinsed twice with 1×PBS containing 0.1% Triton to remove traces of fixative. Cell samples without AVCGTG (SEQ ID NO. 1)-FITC were used for the background control. After blocking solution with 5% NGS (Normal Goat Serum, VECTOR) 1×PBS+0,1% Triton X-100, was added for 30 minutes. After removing the blocking solution, cells were incubated with primary antibody hexapeptide, diluted 1:200 in blocking solution, overnight at 4° C. The following day, after washing with lx PBS and 0.1% Triton X-100 for 10 minutes, secondary antibody (ALEXA FLUO 488A, SANTACRUZ) diluted 1:400 with 1×PBS and 0.1% Triton X-100 for 2 h was added. The excess of antibody was removed with 3 washes with 1×PBS.
Nuclei were stained with DAPI (1 μg/mL). The slides were mounted and stored in the dark at 4° C. and then observed by fluorescence microscope ZEISS HB050 by using the software Axion Vision Re1.4.8.

cells = assay: Ability of hexapeptide conjugated to fluorescein to enter cells (immunocytochemistry); type: cell-based; settings: immunocytochemistry examination
Excerpt: The test results are positive and confirms the previous data.

[4] = test system: Human breast cancer MCF-7; assay: Immuno-histochemical assessment of internalization (Ab anti-leader peptide 24 aa); type: cell-based; settings: 3 hours, 92 μM, positive = brownish coloration
Experimental: as §5, with “The cells were then placed in Zamboni solution (4% paraformaldehyde, 15% picric acid) for 60 min and then washed with a solution of 1×PBS and incubated for 5 min with 3% hydrogen peroxide to suppress the action of endogenous peroxidase.” left out
as §6
(§7) After incubation with these molecules, the cells were washed and treated with the polyclonal antibody for three hours at rt, and then the cells were washed with a solution of PBS [17, 18].

A-375 Melanoma = assay: as above; type: cell-based, human; settings: 3 hours, 92 μM, positive = brownish coloration
Experimental: as §5, with “The cells were then placed in Zamboni solution (4% paraformaldehyde, 15% picric acid) for 60 min and then washed with a solution of 1×PBS and incubated for 5 min with 3% hydrogen peroxide to suppress the action of endogenous peroxidase.” left out
as §6, §7

A-2780 Ovarian Ca = assay: as above; type: cell-based, human; settings: 3 hours, 92 μM, positive = brownish coloration
Experimental: as §5, with “The cells were then placed in Zamboni solution (4% paraformaldehyde, 15% picric acid) for 60 min and then washed with a solution of 1×PBS and incubated for 5 min with 3% hydrogen peroxide to suppress the action of endogenous peroxidase.” left out
as §6, §7

HUH HCC = assay: as above; type: cell-based, human; settings: 3 hours, 92 μM, positive = brownish coloration
Experimental: as §5, with “The cells were then placed in Zamboni solution (4% paraformaldehyde, 15% picric acid) for 60 min and then washed with a solution of 1×PBS and incubated for 5 min with 3% hydrogen peroxide to suppress the action of endogenous peroxidase.” left out
as §6, §7

[5] = test system: DU 145 Renal Cell Carcinoma; assay: as above; type: cell-based, human; settings: 3 hours, 92 μM, positive = brownish coloration
Experimental: as §5, with “The cells were then placed in Zamboni solution (4% paraformaldehyde, 15% picric acid) for 60 min and then washed with a solution of 1×PBS and incubated for 5 min with 3% hydrogen peroxide to suppress the action of endogenous peroxidase.” left out
as §6, §7

Row | Molecule | LDH release (PaTu Ca pancreatic) | LDH release (HUT-7 Hepatocarcinoma) | LDH release (MRC-5) | LDH release (A-2780) | Cellular uptake of Pt (A375) | Pt cell pellet (A375) | Cellular uptake of Pt (MCF-7) | Pt cell pellet (MCF-7) | Cellular uptake of Pt (A2780) | Pt cell pellet (A2780) | Cellular uptake of Pt (HUH-7) | Pt cell pellet (HUH-7) | Cellular uptake of Pt (DU145) | Pt cell pellet (DU145) | LDH release [1] | reaction with polyclonal antibody against leader peptide of 24 aa [3] | internalization, reaction with Ab anti-peptide (24 aa) [4] | internalization, reaction with Ab anti-peptide (24 aa) (A-375 Melanoma) | internalization, reaction with Ab anti-peptide (24 aa) (A-2780 Ovarian Ca) | internalization, reaction with Ab anti-peptide (24 aa) (HUH HCC) | other results
1 | N.N.[Cl][Pt][Cl] [CC, cisplatin, reference compound] | 25% | 32% | 37% | 36% | 1.5% | 399.9 µg/L | 2.6% | 760 µg/L | 0.75% | 163 µg/L | 1.2% | 242.9 µg/L | 0.9% | 167.3 µg/L | 48% |  |  |  |  |  | 
2 | CC(C)[C@H](NC(=O)[C@H](C)N)C(=O)N[C@@H](CS)C(=O)NCC(=O)N[C@H](C(=O)NCC(=O)O)[C@@H](C)O [Hexapeptide, AVCGTG] (H-AVCGTG-OH; N-terminus assumed) |  |  |  |  |  |  |  |  |  |  |  |  |  |  |  | positive |  |  |  |  | mortality at 24 hr, 1.5 μM [2]: 2 to 5%; penetration into white blood cells (white blood cells): positive; LDH μelease (PaTu Ca pancreatic; not treated cells): 3%; LDH μelease (HUT-7 Hepatocarcinoma): 4%; LDH μelease (MRC-5; not treated cells): 2%; internalization in lymphocytes (Human Normal Lymphocytes): cytoplasmic internalization; LDH μelease (A-2780; 1.5 mM): 5%; LDH μelease ([1]; 1.5 mM): 5%; penetration into Jurkat cells (Jurkat cells): cytoplasmic internalization
3 | ACTGVG [reference compound] |  |  |  |  |  |  |  |  |  |  |  |  |  |  |  |  |  |  |  |  | penetration into the cells (cells): does not penetrate into the cells
4 | Lp-CC (AVCGTG) | 60% | 69% | 40% | 85% | 15.5% | 372 µg/L | 4.2% | 97 µg/L | 5.9% | 144 µg/L | 5.2% | 118.7 µg/L | 13.8% | 342.8 µg/L | 77% |  | positive | positive | positive | positive | internalization, reaction with Ab anti-peptide (24 aa) [5]: positive
5 | B1 |  |  |  |  |  |  |  |  |  |  |  |  |  |  |  | positive | positive | positive | positive | positive | internalization, reaction with Ab anti-peptide (24 aa) [5]: positive
